Experimental data: ChEMBL document CHEMBL1149216, “Benzene-di-N-octylcarbamates as conformationally constrained phospholipase A(2) inhibitors” (Bioorg Med Chem Lett, 2004)

Experiments:
[1] = biological target: Phospholipase A2, major isoenzyme (Sus scrofa) (UniProt P00592); assay: Pre-steady-state inhibition constant against phospholipase A2; settings: naja mocambique mocambique
[2] = biological target: Phospholipase A2, major isoenzyme (Sus scrofa) (UniProt P00592); assay: k_2 value calculated from 1/Ki=(1/Ks)(k2/k_2); settings: naja mocambique mocambique

Phospholipase A2, major isoenzyme (Sus scrofa), sequence (P00592 23-146 limits assumed): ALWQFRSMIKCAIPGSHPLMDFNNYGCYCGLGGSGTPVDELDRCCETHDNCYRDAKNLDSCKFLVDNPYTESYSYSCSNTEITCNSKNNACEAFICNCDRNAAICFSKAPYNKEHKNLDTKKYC

K2 [1] | Ks [1] | k 2 [2] | SMILES
0.13 s⁻¹ | 16 µM | 0.033 s⁻¹ | CCCCCCCCNC(=O)Oc1cccc(OC(=O)NCCCCCCCC)c1
0.21 s⁻¹ | 21 µM | 0.15 s⁻¹ | CCCCCCCCNC(=O)Oc1ccc(OC(=O)NCCCCCCCC)cc1
0.17 s⁻¹ | 68 µM | 0.028 s⁻¹ | CCCCCCCCNC(=O)Oc1ccccc1OC(=O)NCCCCCCCC
